Experimental data: Sander's compilation of Henry's law constants (doi:10.1021/es00169a013)

assay: Henry solubility constant Hcp at 298.15 K (mol/(m3 Pa)); conditions: reference: Dunnivant et al. (1988)

Point of comparison: Clc1cccc(-c2cc(Cl)ccc2Cl)c1 [2,3',5-trichlorobiphenyl], “Henry solubility constant Hcp” value 0.03. Against it:
- Clc1cccc(-c2cccc(Cl)c2Cl)c1Cl [2,2',3,3'-tetrachlorobiphenyl] — higher, 0.049
- Clc1cc(Cl)c(-c2cc(Cl)c(Cl)cc2Cl)cc1Cl [2,2',4,4',5,5'-hexachlorobiphenyl] — higher, 0.075
- Clc1cc(Cl)c(-c2c(Cl)cc(Cl)cc2Cl)c(Cl)c1 [2,2',4,4',6,6'-hexachlorobiphenyl] — lower, 0.013
- Clc1ccc(Cl)c(-c2cc(Cl)c(Cl)cc2Cl)c1 [2,2',4,5,5'-pentachlorobiphenyl] — higher, 0.039
- Clc1ccc(Cl)c(-c2cc(Cl)ccc2Cl)c1 [2,2',5,5'-tetrachlorobiphenyl] — lower, 0.029
- Clc1cccc(Cl)c1-c1c(Cl)cccc1Cl [2,2',6,6'-tetrachlorobiphenyl] — lower, 0.018
- Clc1ccccc1-c1ccccc1Cl [2,2'-dichlorobiphenyl] — lower, 0.029
- Clc1cc(Cl)c(-c2ccccc2)c(Cl)c1 [2,4,6-trichlorobiphenyl] — lower, 0.015
- Clc1ccc(Cl)c(-c2ccccc2)c1 [2,5-dichlorobiphenyl] — lower, 0.025
- Clc1ccc(-c2ccc(Cl)c(Cl)c2)cc1Cl [3,3',4,4'-tetrachlorobiphenyl] — higher, 0.1
- Clc1cccc(-c2cccc(Cl)c2)c1 [3,3'-dichlorobiphenyl] — higher, 0.042
- Clc1ccc(-c2ccccc2)cc1Cl [3,4-dichlorobiphenyl] — higher, 0.048
- Clc1ccc(-c2ccc(Cl)cc2)cc1 [4,4'-dichlorobiphenyl] — higher, 0.05
